Data taken from patent US20220289794A1, “SYNTHETIC ANTIMICROBIAL PEPTIDES” (priority 2019, published 2022).
Values after ≈ are worked out from the molar mass of the structure shown. Like-named read-outs stand apart in the source and are kept apart here. Non-standard residues stand in square brackets, D forms with d. Residues, ends and D or L forms follow the SMILES beside them. dDip = N[C@@H](C(=O)O)C(c1ccccc1)c1ccccc1; 2Nal = N[C@@H](Cc1ccc2ccccc2c1)C(=O)O

Tests used:
[1] = system: Methicillin-resistant Staphylococcus aureus MRSA (ATCC BAA-1556); conditions: ATCC BAA-1556
[2] = system: S. aureus ATCC 29213; conditions: ATCC 29213
[3] = system: Pseudomonas aeruginosa (ATCC 27883)
[4] = system: Escherichia coli (ATCC 25922); conditions: ATCC 25922
[5] = in vitro; conditions: human, fresh human red blood cells (washed), pH 7.4

Row | MIC MRSA ATCC BAA-1556 [1] [µg/mL] | MIC S. aureus ATCC 29213 [2] [µg/mL] | MIC P. aeruginosa ATCC 27883 ([3]; ATCC 27883) [µg/mL] | MIC E. coli ATCC 25922 [4] [µg/mL] | HC50 at 0.5 h [5] [µg/mL] | SMILES | MIC P. aeruginosa ATCC 27883 ([3]; P. aeruginosa ATCC 27883) [µg/mL]
1 | 1.5 (≈ 1.24 µM) | 1.5 (≈ 1.24 µM) | 6.2 (≈ 5.14 µM) | 12.5 (≈ 10.4 µM) | 175 | N=C(N)NCCC[C@@H]1NC(=O)[C@H](CCCNC(=N)N)NC(=O)[C@@H](CCCNC(=N)N)NC(=O)[C@H](CCCNC(=N)N)NC(=O)[C@H](Cc2ccc3ccccc3c2)NC(=O)[C@H](Cc2ccc3ccccc3c2)NC(=O)[C@H](Cc2c[nH]c3ccccc23)NC1=O [IFX-107, c[Arg-arg-Arg-Arg-Trp-NaI-NaI]] (cyclo([2Nal][2Nal]R[dR]RRW)) | –
2 | 3.1 (≈ 2.57 µM) | 3.1 (≈ 2.57 µM) | 32 (≈ 26.5 µM) | 32 (≈ 26.5 µM) | 220 | N=C(N)NCCC[C@H]1NC(=O)[C@H](Cc2ccc3ccccc3c2)NC(=O)[C@H](Cc2ccc3ccccc3c2)NC(=O)[C@@H](Cc2c[nH]c3ccccc23)NC(=O)[C@@H](CCCNC(=N)N)NC(=O)[C@@H](CCCNC(=N)N)NC(=O)[C@@H](CCCNC(=N)N)NC1=O [IFX-122, c[arg-arg-arg-arg-trp-NaI-NaI]] (cyclo([2Nal][2Nal][dR][dR][dR][dR][dW])) | –
3 | 6.2 (≈ 4.72 µM) | 3.1 (≈ 2.36 µM) | 25 (≈ 19 µM) | 12.5 (≈ 9.52 µM) | 355 | N=C(N)NCCC[C@@H](N)C(=O)N[C@@H](CCCNC(=N)N)C(=O)N[C@H](CCCNC(=N)N)C(=O)N[C@@H](CCCNC(=N)N)C(=O)N[C@@H](C(=O)N[C@@H](C(=O)N[C@@H](C(=O)O)C(c1ccccc1)c1ccccc1)C(c1ccccc1)c1ccccc1)C(c1ccccc1)c1ccccc1 [IFX-068-1] (H-[dR]R[dR]R[dDip][dDip][dDip]-OH) | –

Row | SMILES | MIC MRSA ATCC BAA-1556 [1] [µg/mL] | MIC S. aureus ATCC 29213 [2] [µg/mL] | MIC P. aeruginosa ATCC 27883 ([3]; ATCC 27883) [µg/mL] | MIC E. coli ATCC 25922 [4] [µg/mL] | HC50 at 0.5 h [5] [µg/mL] | MIC P. aeruginosa ATCC 27883 ([3]; P. aeruginosa ATCC 27883) [µg/mL]
4 | N=C(N)NCCC[C@@H]1NC(=O)[C@H](CCCNC(=N)N)NC(=O)[C@H](Cc2ccc3ccccc3c2)NC(=O)[C@H](Cc2ccc3ccccc3c2)NC(=O)[C@@H](Cc2c[nH]c3ccccc23)NC(=O)[C@H](CCCNC(=N)N)NC(=O)[C@H](CCCNC(=N)N)NC1=O [IFX-104, c[Arg-Arg-Arg-Arg-trp-NaI-NaI]] (cyclo([2Nal][2Nal]RRRR[dW])) | 3.1 (≈ 2.57 µM) | 3.1 (≈ 2.57 µM) | – | 12.5 (≈ 10.4 µM) | 155 | 12.5 (≈ 10.4 µM)
